Results published in publication PMC7956625, “Optimization and Anti-Cancer Properties of Fluoromethylketones as Covalent Inhibitors for Ubiquitin C-Terminal Hydrolase L1” (Molecules, 2021).
Residue numbers refer to the chain shown, from its start. Where a SMILES comes first, the peptide text is derived from it. The star is where a group is joined. Cbz = O=C(OCc1ccccc1)*; CH2F = FC*

How the values were obtained:
UCHL1 C90A = target: T1, UCHL1 C90A (Homo sapiens, UniProt P09936, C90A); assay: Mass spectrometry analysis of 34 adducts on UCHL1; format: binding
T1 construct: His (N); made in house
T1 sequence (P09936 1-223 C90A): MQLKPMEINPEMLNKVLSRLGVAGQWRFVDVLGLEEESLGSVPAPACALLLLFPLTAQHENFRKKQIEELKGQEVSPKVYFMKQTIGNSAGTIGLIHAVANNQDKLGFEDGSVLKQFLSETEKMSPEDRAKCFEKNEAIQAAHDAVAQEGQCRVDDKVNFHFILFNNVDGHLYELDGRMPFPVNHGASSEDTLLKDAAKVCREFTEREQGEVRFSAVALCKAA
Method: (§1) A common shortcoming to covalent inhibitors is that the reactive electrophilic groups may partake in non-specific labeling of off-target cysteines. To investigate if alternative cysteines are affected on UCHL1 we used analog 34 to confirm that the fluoromethylketone derivatives only conjugate Cys90. […] Additionally, samples were analyzed by mass spectrometry to increase sensitivity for detection of any non-Cys90 adducts. […]
(§2) Solutions containing 10 µM recombinant UCHL1^WT or UCHL1^C90A (from pET15b) (49 µL) was incubated with either 10 µM or 20 µM inhibitor for 3 h at room temperature in PBS starting block buffer (Thermo Scientific # 37538). To quench reaction, chilled acetone was added to the sample to achieve an overall 80% acetone solution. After overnight storage at −20 °C, suspension was centrifuged at 14,000× g at 4 °C for 15 min. Supernatant was discarded, and pellet was dried by vacuum centrifugation for 1 h. Pellet was reconstituted in 50/50 water/acetonitrile with 0.1% formic acid. 25 pmol per sample was analyzed by LC/MS (Agilent 1260 Infinity II with a ZORBAX Rapid Resolution High Definition 300Å Stable Bond C3, 2.1 × 100 mm, 1.8 µm column) attached to an Agilent 6129 quadrupole mass spectrometer in positive ion mode.
(§3) The column was held at 45 °C. Mobile solution A was 0.1% formic acid in water, and mobile phase B was 0.1% formic acid in acetonitrile. The gradient used was hold at 5% B for 5 min, increase linearly to […] for 10, and then hold at 95% B for 5 min. The mass data were collected at a range of 500–1000 m/z.
(§4) Raw data were processed using MestReNova. For all samples, the deconvoluted mass was calculated with a charged state range from 27 to 36, m/z range of 670–900 Da, and deconvoluted mass range from 25,000–26,000 Da. […] For C90A mutant, this abundance threshold was lowered to 5% to detect the presence of any reacted protein. 34 adduct is expected to be +486.00 Da after displacement of fluorine.

WT-UCHL1 = target: T2, WT-UCHL1 (Homo sapiens, UniProt P09936); assay: Mass spectrometry analysis of 34 adducts on UCHL1; format: binding; conditions: WT-UCHL1 + 34 (1:1)
T2 construct: His (N); made in house
T2 sequence (P09936 1-223): T1 sequence (P09936 1-223 C90A) with A90C
Method: as §1, §2, §3, §4

UCHL5 = target: T3, UCHL5 (Homo sapiens, UniProt Q9Y5K5); assay: KMS cell activity-based probe (HA-Ub-VME) assay, HA blot higher exposure; conditions: 250 µM, KMS11 cells
T3 sequence (Q9Y5K5 1-245 limits assumed): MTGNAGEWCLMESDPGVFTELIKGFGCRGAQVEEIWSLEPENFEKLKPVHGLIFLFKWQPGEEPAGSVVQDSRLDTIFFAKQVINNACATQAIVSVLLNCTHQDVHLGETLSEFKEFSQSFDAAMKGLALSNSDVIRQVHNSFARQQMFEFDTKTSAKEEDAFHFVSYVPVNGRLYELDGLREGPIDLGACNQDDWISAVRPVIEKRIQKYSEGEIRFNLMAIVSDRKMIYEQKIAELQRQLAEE
Method: To confirm on-target engagement in KMS11 cells, a Ub activity-based probe (ABP) gel-shift assay was employed. Using the hemagglutinin-tagged Ub-vinylmethylester (HA-Ub-VME) ABP to examine the activity of 1 in KMS11 cells, an immunoblot was performed. Cells were treated in dose-response with 1 (0–250 µM), washed with PBS, then lysed and treated with HA-Ub-VME. The HA-Ub-VME labels any remaining DUBs that have not been inhibited by 1.
Twelve hours prior to the addition of compounds to the cells, 1.2 million KMS11 or KMS12 cells mL^−1 per well were seeded in a 12 well plate. Cells were incubated with inhibitor for 4 h before washing the cells three time with PBS to remove excess compound. Cells were harvested, pelleted, and lysed in 60 µL of lysis buffer (0.5%NP-40 in 50 mM Tris pH 7.4). HA-Ub-VME was then added to a final concentration of 1 µM and incubated for 1 h at room temperature. An equal volume of 2X Laemmli sample buffer was added, and the samples were heated to 95 °C before separating by gel electrophoresis and analyzed by immunoblot.

UCHL1 = target: T4, UCHL1 (Homo sapiens, UniProt P09936); assay: Fluorescence-based Ub-Rho deubiquitinase activity assay; format: biochemical; parameters: made in house; conditions: IC50, after approximately 112 min preincubation
T4 sequence (P09936 1-223): T1 sequence (P09936 1-223 C90A) with A90C

| SMILES | Adduct(s) Observed (Da) (UCHL1 C90A; UCHL1 C90A + 34 (1:1)) | Adduct(s) Observed (Da) (UCHL1 C90A; UCHL1 C90A + 34 (1:2)) | Adduct(s) Observed (Da) (WT-UCHL1) | inhibition of DUB corresponding to the molecular weight UCHL5 (UCHL5) | IC50 (UCHL1) [µM] |
| --- | --- | --- | --- | --- | --- |
| C#Cc1ccc(COC(=O)N[C@H](C(=O)N[C@@H](C)C(=O)N[C@@H](CCC(=O)OC)C(=O)CF)C(C)C)cc1 [Cpd 34] | none | no adducts observed and none | +486.00 Da | – | – |
| COC(=O)CC[C@H](NC(=O)[C@H](C)NC(=O)[C@@H](NC(=O)OCc1ccccc1)C(C)C)C(=O)CF [Cpd 1, benzyloxycarbonyl-Val-Ala-Glu(γ-methoxy)-fluoromethylketone] (Cbz-Val-Ala-Glu(OMe)-CH2F) | – | – | – | may also be inhibited | 29 |
